Data reported in ChEMBL document CHEMBL5291721, “A preclinical secondary pharmacology resource illuminates target-adverse drug reaction associations of marketed drugs” (Nat Commun, 2023).

Legend:
[1] = biological target: T1, Adenosine receptor A1 (Homo sapiens, UniProt P30542)
T1 sequence (P30542 whole entry): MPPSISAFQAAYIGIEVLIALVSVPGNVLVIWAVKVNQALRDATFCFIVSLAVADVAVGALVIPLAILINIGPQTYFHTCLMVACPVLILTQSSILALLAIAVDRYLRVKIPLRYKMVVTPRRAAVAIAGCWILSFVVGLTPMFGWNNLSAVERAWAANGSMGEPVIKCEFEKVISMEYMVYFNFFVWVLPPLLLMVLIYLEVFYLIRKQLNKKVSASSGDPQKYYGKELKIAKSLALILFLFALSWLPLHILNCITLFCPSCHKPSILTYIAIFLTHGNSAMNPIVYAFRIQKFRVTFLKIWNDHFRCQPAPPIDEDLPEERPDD

[2] = biological target: Vasopressin V2 receptor (Homo sapiens, UniProt P30518)
Sequence of Vasopressin V2 receptor (P30518 whole entry): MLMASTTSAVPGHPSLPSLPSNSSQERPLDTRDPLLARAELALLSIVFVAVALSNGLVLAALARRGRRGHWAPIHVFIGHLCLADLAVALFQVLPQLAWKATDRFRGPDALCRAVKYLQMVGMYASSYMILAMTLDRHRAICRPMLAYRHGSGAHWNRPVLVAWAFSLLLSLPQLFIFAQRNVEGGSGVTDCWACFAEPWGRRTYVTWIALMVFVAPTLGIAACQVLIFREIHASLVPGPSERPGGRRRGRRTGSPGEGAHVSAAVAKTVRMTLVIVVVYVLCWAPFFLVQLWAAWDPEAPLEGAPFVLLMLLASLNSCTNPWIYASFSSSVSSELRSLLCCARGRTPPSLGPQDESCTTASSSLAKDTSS

[3] = biological target: T2, Muscarinic acetylcholine receptor M1 (Homo sapiens, UniProt P11229); format: functional
T2 sequence (P11229 whole entry): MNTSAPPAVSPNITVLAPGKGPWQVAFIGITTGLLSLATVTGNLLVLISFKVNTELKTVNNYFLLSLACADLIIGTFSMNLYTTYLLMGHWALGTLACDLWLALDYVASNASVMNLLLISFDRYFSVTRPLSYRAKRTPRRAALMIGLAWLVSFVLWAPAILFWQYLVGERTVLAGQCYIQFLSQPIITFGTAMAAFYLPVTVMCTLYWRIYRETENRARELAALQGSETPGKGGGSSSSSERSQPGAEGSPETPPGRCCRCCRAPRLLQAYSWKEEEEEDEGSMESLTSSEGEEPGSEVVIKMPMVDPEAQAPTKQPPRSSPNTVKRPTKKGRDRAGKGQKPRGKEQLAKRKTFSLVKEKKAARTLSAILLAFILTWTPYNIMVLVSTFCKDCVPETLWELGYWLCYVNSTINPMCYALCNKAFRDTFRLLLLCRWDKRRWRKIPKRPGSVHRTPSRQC

[4] = biological target: Muscarinic acetylcholine receptor M3 (Homo sapiens, UniProt P20309)
Sequence of Muscarinic acetylcholine receptor M3 (P20309 whole entry): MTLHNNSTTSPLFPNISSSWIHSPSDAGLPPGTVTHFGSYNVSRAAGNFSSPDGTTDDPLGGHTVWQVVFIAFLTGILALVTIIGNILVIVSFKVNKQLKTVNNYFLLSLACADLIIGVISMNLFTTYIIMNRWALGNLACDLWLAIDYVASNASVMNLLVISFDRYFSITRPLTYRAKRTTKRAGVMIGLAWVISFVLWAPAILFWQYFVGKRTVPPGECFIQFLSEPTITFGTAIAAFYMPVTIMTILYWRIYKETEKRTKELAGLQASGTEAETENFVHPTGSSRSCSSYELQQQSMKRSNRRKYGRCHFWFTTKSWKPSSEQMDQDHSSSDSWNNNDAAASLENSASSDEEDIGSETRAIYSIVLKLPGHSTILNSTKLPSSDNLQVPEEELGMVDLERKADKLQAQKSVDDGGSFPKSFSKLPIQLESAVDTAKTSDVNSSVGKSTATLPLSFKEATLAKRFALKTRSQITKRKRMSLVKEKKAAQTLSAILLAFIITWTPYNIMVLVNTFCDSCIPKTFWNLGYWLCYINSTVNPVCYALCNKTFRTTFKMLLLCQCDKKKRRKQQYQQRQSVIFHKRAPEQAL

[5] = biological target: Gamma-aminobutyric acid receptor subunit alpha-1 (Rattus norvegicus, UniProt P62813)
Sequence of Gamma-aminobutyric acid receptor subunit alpha-1 (P62813 whole entry): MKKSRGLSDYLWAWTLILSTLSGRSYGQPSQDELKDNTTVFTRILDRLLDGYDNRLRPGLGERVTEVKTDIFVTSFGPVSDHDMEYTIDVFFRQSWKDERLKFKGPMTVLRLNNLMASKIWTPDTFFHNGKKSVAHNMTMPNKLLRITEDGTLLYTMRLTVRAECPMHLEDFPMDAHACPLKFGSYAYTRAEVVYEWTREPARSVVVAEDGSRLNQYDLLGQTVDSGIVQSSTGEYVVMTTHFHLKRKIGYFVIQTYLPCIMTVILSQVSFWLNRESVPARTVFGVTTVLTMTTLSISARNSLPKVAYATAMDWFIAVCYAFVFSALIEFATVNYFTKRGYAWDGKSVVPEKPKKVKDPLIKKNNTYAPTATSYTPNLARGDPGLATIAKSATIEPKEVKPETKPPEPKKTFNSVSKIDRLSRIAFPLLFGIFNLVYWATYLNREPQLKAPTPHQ

[6] = biological target: Histamine H2 receptor (Homo sapiens, UniProt P25021); format: functional, cell-based
Sequence of Histamine H2 receptor (P25021 whole entry): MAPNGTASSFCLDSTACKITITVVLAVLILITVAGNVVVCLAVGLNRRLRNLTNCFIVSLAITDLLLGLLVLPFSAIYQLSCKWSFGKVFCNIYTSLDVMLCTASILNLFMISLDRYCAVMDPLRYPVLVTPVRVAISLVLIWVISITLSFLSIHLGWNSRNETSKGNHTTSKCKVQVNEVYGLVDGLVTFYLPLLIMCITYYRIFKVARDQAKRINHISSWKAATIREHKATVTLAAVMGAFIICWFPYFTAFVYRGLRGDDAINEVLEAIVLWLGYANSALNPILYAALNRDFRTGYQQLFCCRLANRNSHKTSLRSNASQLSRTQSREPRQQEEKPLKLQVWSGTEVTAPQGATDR

[7] = biological target: T3, Neuropeptide Y receptor type 1 (Homo sapiens, UniProt P25929); conditions: read-out: AC50
T3 sequence (P25929 whole entry): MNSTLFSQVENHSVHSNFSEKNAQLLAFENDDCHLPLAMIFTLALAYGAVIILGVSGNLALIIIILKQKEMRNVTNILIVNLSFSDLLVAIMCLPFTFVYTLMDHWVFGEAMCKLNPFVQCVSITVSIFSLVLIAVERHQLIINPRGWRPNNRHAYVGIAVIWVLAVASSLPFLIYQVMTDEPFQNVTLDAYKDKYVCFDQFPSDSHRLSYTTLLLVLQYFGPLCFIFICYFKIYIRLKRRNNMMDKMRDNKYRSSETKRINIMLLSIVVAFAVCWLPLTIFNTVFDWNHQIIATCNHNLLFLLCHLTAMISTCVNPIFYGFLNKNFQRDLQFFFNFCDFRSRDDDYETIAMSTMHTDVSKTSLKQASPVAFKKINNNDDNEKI

[8] = biological target: Delta-type opioid receptor (Homo sapiens, UniProt P41143)
Sequence of Delta-type opioid receptor (P41143 whole entry): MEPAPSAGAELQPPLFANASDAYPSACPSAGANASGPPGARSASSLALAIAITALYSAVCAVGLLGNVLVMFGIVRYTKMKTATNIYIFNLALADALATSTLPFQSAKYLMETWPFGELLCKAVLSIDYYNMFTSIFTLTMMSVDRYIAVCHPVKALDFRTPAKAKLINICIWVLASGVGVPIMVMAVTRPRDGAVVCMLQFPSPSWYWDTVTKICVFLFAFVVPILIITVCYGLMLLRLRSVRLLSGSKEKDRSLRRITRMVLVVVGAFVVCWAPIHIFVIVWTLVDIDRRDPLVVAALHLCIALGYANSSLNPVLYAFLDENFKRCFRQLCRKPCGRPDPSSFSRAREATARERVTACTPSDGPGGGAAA

[9] = biological target: 3',5'-cyclic-AMP phosphodiesterase 4D (Homo sapiens, UniProt Q08499); format: functional
Sequence of 3',5'-cyclic-AMP phosphodiesterase 4D (Q08499 whole entry): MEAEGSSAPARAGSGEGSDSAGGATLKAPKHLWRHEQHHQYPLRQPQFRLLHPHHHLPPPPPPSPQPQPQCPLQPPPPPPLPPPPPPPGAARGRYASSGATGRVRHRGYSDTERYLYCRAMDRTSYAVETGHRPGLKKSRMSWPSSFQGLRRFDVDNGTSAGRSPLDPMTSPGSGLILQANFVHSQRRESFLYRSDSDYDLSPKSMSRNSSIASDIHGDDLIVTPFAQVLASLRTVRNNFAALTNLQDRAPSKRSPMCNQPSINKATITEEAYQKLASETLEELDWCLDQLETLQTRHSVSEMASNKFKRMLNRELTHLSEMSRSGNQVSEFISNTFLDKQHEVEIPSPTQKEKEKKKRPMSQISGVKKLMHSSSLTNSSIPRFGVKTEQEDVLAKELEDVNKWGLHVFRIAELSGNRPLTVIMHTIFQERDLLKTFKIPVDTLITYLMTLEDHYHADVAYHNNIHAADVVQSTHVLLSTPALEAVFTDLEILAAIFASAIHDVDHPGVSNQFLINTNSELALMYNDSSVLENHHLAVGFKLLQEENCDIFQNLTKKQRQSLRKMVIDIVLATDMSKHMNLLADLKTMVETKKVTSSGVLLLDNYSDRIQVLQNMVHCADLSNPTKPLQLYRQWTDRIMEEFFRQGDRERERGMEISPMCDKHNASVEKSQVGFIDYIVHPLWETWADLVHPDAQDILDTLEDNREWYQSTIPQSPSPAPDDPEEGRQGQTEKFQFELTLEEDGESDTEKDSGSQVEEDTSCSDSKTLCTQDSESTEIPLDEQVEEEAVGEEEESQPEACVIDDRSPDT

[10] = biological target: T4, Progesterone receptor (Homo sapiens, UniProt P06401); format: functional
T4 sequence (P06401 whole entry): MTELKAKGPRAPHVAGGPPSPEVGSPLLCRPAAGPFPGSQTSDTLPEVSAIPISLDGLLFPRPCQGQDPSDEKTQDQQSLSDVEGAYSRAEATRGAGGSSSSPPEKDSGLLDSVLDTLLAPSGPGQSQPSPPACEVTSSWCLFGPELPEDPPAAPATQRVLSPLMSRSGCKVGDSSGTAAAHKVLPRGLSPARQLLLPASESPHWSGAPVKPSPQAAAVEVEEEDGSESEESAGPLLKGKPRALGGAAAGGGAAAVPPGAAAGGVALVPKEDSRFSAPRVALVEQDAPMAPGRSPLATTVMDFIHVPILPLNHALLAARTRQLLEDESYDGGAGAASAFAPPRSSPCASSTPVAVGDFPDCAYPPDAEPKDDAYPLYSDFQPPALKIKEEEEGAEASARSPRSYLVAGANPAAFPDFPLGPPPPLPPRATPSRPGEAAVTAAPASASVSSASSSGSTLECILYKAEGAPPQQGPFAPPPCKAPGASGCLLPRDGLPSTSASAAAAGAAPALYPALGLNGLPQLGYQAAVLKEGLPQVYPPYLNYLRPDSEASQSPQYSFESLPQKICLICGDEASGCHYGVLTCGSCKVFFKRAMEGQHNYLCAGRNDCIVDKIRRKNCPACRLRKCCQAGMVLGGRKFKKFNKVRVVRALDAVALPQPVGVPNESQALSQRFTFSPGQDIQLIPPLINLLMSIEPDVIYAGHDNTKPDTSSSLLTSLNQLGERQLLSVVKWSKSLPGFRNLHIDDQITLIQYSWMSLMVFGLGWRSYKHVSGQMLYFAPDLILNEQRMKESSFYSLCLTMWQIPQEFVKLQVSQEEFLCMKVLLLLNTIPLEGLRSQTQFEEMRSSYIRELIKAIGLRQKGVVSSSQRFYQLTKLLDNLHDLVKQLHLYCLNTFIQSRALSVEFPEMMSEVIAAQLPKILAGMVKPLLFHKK

[11] = biological target: T5, Alpha-1A adrenergic receptor (Homo sapiens, UniProt P35348); format: functional, cell-based
T5 sequence (P35348 whole entry): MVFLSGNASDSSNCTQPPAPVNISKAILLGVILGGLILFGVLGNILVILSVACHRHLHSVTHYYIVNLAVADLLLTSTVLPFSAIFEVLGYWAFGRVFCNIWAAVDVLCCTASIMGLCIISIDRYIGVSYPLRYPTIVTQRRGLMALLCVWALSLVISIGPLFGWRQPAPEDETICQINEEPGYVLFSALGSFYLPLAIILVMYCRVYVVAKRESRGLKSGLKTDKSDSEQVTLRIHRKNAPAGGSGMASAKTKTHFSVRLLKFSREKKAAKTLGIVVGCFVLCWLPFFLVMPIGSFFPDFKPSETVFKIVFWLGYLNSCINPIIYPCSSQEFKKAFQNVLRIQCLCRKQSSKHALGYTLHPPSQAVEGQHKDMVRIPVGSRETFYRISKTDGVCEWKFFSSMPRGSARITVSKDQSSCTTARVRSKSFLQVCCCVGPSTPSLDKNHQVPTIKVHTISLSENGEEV
Note: assay procedure not described here.

Row | SMILES | AC50 [1] | AC50 [2] | AC50 [3] | AC50 [4] | AC50 [5] | AC50 [6] | AC50 [7] | AC50 [8] | AC50 [9] | AC50 [10] | AC50 [11]
1 | COc1ccc(-c2noc(CC(=O)O)c2-c2ccc(OC)cc2)cc1 [MOFEZOLAC] | > 30 µM | > 30 µM | > 30 µM | > 30 µM | > 30 µM | > 30 µM | > 30 µM | > 30 µM | > 30 µM | > 30 µM | > 30 µM
2 | C[N@+]1(CCF)[C@@H]2CC[C@H]1C[C@@H](OC(=O)C(O)(c1ccccc1)c1ccccc1)C2 | > 30 µM | > 30 µM | 0.0066 µM | 0.0031 µM | > 30 µM | > 30 µM | > 30 µM | > 30 µM | > 30 µM | > 30 µM | > 30 µM
3 | COc1ccc2nc3cc(Cl)ccc3c(Nc3cc(CN4CCCC4)c(O)c(CN4CCCC4)c3)c2n1 [PYRONARIDINE] | > 30 µM | 18 µM | > 30 µM | 25 µM | > 30 µM | > 30 µM | > 30 µM | > 30 µM | 24 µM | 14 µM | > 30 µM

Other lines, results leading:

Row | AC50 [1] | AC50 [2] | AC50 [3] | AC50 [4] | AC50 [5] | AC50 [6] | AC50 [7] | AC50 [8] | AC50 [9] | AC50 [10] | AC50 [11] | SMILES
4 | > 30 µM | > 30 µM | > 30 µM | > 30 µM | > 30 µM | > 30 µM | > 30 µM | > 30 µM | > 30 µM | > 30 µM | > 30 µM | CCN(CC)C(=O)Nc1ccc(OCC(O)CNC(C)(C)C)c(C(C)=O)c1 (configuration not stated) [CELIPROLOL]
5 | > 30 µM | > 30 µM | > 30 µM | > 30 µM | > 30 µM | > 30 µM | > 30 µM | > 30 µM | > 30 µM | > 30 µM | > 30 µM | CC(=O)SC[C@@H](C)C(=O)N1CCC[C@H]1C(=O)N[C@@H](Cc1ccccc1)C(=O)O
6 | > 30 µM | > 30 µM | > 30 µM | > 30 µM | > 30 µM | > 30 µM | > 30 µM | > 30 µM | 25 µM | 0.003 µM | > 30 µM | CCCCCC(=O)O[C@]1(C(C)=O)CC[C@H]2[C@@H]3CCC4=CC(=O)CC[C@]4(C)[C@H]3CC[C@@]21C [HYDROXYPROGESTERONE CAPROATE]
7 | > 30 µM | > 30 µM | > 30 µM | > 30 µM | > 30 µM | > 30 µM | > 30 µM | > 30 µM | 22 µM | > 30 µM | > 30 µM | CC1=C(C)C(=O)C(C(CCCCCC(=O)O)c2ccccc2)=C(C)C1=O (configuration not stated) [SERATRODAST]
